Measurements as given in ChEMBL document CHEMBL4622878, “Cytotoxic Activity of Germacrane-Type Sesquiterpene Lactones from Dimerostemma aspilioides” (J Nat Prod, 2020).
Calls of active or inactive are those of the source. No cut-off for these calls is given here.

Key:
K562-Lucena 1 [1] = assay: Cytotoxicity against human K562-Lucena 1 cells after 48 hrs by MTT assay; type: functional, cell-based; conditions: K562-Lucena 1, 48 h
K562-Lucena 1 [2] = assay: Induction of cell cycle arrest in human K562-Lucena 1 cells assessed as decrease in accumulation of cells at G1 phase at 40 uM after 24 hrs by propidium iodide staining based flow cytometric analysis; type: functional
CCRF-CEM = assay: Cytotoxicity against human CCRF-CEM cells after 48 hrs by MTT assay; type: functional, cell-based
ADR5000 cell line = assay: Cytotoxicity against human CEM/ADR5000 cells after 48 hrs by MTT assay; type: functional, cell-based; conditions: ADR5000, 48 h
K562 [3] = assay: Induction of cell cycle arrest in human K562 cells assessed as decrease in accumulation of cells at S phase at 1.4 uM after 24 hrs by propidium iodide staining based flow cytometric analysis; type: functional
K562 [4] = assay: Induction of cell cycle arrest in human K562 cells assessed as decrease in accumulation of cells at G1 phase at 1.4 uM after 24 hrs by propidium iodide staining based flow cytometric analysis; type: functional
K562 [5] = assay: Cytotoxicity against human K562 cells after 48 hrs by MTT assay; type: functional, cell-based; conditions: K562, 48 h

In the case of `COc1cccc2c1C(=O)c1c(O)c3c(c(O)c1C2=O)C[C@@](O)(C(=O)CO)C[C@@H]3O[C@H]1C[C@H](N)[C@H](O)[C@H](C)O1` [DOXORUBICIN], the IC50 (K562-Lucena 1 [1]) is reported as over 10 µM, the Activity (K562-Lucena 1 [2]) is reported as “Active” and the IC50 (CCRF-CEM) is reported as 0.17 µM. The IC50 (ADR5000 cell line) was over 10 µM, the Activity (K562 [3]) was “inactive” and the Activity (K562 [4]) was “inactive”. For the same compound, the IC50 (K562 [5]) was 1.4 µM.

`C=C(CO)C(=O)O[C@H]1C/C(CO)=C/CC/C(C)=C/[C@H]2OC(=O)C(=C)[C@H]12` gave an IC50 (K562-Lucena 1 [1]) of over 10 µM, an IC50 (CCRF-CEM) of 0.46 µM and an IC50 (ADR5000 cell line) of 1.7 µM. For the same compound, the IC50 (K562 [5]) was 7 µM.

In the case of `C=C(CO)C(=O)O[C@H]1C/C(COC(C)=O)=C/CC/C(C)=C/[C@H]2OC(=O)C(=C)[C@H]12`, the IC50 (K562-Lucena 1 [1]) is reported as over 10 µM, the IC50 (CCRF-CEM) is reported as 3.5 µM and the IC50 (ADR5000 cell line) is reported as 7.7 µM. It also gave an IC50 (K562 [5]) of over 10 µM.
